Several values for one entry are separate records, joined by “and”; a condition that tells them apart may be missing. Equal values may be shown once. Read-outs that look alike come from different tables or passages of the source.
Assays:
[1] = target: T1, aryl hydrocarbon receptor (Homo sapiens, UniProt P35869); assay: Aryl hydrocarbon receptor-driven luciferase reporter in transiently transfected HepG2 cells, Example 3; type: cell-based; conditions: absence or presence of VAF347 (80 nM); six hours after plating
T1 construct: HepG2 cells transiently transfected with the pGudLuc6.1 plasmid were thawed and 25,000 cells were plated per well; endogenous in cells; host or cells: HepG2
T1 sequence (P35869 11-848): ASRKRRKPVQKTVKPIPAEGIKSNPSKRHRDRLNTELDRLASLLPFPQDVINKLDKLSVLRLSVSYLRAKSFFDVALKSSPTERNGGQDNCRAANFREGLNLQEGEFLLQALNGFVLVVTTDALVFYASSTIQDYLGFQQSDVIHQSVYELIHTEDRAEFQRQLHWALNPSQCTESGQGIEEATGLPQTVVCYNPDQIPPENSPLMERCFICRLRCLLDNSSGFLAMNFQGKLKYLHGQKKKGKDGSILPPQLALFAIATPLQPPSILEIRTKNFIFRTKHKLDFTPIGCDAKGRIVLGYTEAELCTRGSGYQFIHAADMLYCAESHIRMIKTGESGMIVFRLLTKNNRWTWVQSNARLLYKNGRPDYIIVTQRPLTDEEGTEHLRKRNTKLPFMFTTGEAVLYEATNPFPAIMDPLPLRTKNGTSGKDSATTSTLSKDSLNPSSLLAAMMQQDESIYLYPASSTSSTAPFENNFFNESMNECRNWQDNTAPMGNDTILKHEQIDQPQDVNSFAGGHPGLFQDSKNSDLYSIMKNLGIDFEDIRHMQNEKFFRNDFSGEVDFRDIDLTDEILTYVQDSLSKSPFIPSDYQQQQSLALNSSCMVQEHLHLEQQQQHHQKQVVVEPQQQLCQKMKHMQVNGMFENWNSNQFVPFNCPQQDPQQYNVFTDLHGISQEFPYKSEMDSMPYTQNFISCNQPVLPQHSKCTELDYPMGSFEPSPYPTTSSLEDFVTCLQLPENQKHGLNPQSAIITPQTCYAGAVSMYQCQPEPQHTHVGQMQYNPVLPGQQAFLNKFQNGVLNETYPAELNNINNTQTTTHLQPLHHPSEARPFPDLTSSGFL
Method: To determine the ability of compounds (5) and (16) to inhibit the activity of the aryl hydrocarbon receptor and to induce the proliferation of hematopoietic stem cells, a series of HSC expansion experiments were conducted. In the first experiment, compounds (5) and (16) were assessed for their capacity to attenuate aryl hydrocarbon receptor signaling. To this end, HepG2 hepatocytes were transiently transfected with a luciferase reporter construct under the control of a promoter responsive to aryl hydrocarbon receptor signal transduction. The cells were plated at a density of 25,000 cells per well in a microtiter plate. The HepG2 cells were immediately treated with compound (5) or (16) in the absence (FIG. 1) or presence (FIG. 2) of the aryl hydrocarbon receptor agonist, VAF347 (80 nM). Luciferase activity was subsequently analyzed six hours after plating.

[2] = test system: mononuclear peripheral blood cells enriched in CD34+ cells; assay: Proliferation of hematopoietic stem cells, percentage of CD34+ cells after seven days, Example 3; type: cell-based; conditions: for potency of hematopoietic stem cell expansion compared with SR1: compared with potency reported for SR1; for hematopoietic stem cell growth (percentage of CD34+ cells): seven days following plating
Method: To assess the ability of compounds (5) and (16) to induce the proliferation of hematopoietic stem cells, a population of mononuclear peripheral blood cells enriched in CD34+ cells were plated at a density of 2,350 cells per well (50 μL) in a microtiter plate in the presence of each compound. The percentage of CD34+ hematopoietic stem cells was assessed seven days following the initial plating. […] The compounds of formula (I) and (II) described herein can thus be used to expand hematopoietic stem cells ex vivo in order to obtain sufficient quantities of such cells for in vivo applications.

[3] = test system: mobilized peripheral blood CD34+ cells; assay: CD34+ hematopoietic stem/progenitor cell expansion (CD34+ frequency and number), Example 9; type: cell-based; conditions: dose response beginning at 10 pM, day 7, flow cytometry
Method: To determine the activity of a scale-up batch of Compound (24), individual enantiomers, and two derivatives Compound (27) and Compound (28) were evaluated for i) the ability to expand CD34+ hematopoietic stem/progenitor cells and ii) AHR antagonist activity. The compounds were compared to control AHR antagonist SR1, an additional control AHR antagonist, and stored sample of Compound (24) CD34+ Frequency and Number
Methods—mobilized peripheral blood CD34+ cells were cultured in the presence of compound, in dose response beginning at 10 pM. CD34+ cell frequency and number was assessed at day 7 by flow cytometry. All synthesized compounds show equivalent expansion capabilities if not greater than SR1.

AHR = target: T2, AHR (Homo sapiens, UniProt P35869); assay: AHR antagonist assay, HepG2 cells transiently transfected with pGudLuc6.1 luciferase plasmid, Example 9; type: cell-based; conditions: luciferase activity 24 hours post-culture
T2 construct: HepG2 cells transiently transfected with the pGudLuc6.1 plasmid were thawed and 25,000 cells were plated per well; endogenous in cells; host or cells: HepG2
T2 sequence (P35869 11-848): T1 sequence (P35869 11-848)
Method: Methods—HepG2 cells transiently transfected with the pGudLuc6.1 plasmid were thawed and 25,000 cells were plated per well and immediately treated the AHR agonist VAF347 (fixed at 40 nM) and/or the indicated AHR antagonists. Luciferase activity was measured 24 hours post-culture, corresponding to endogenous AHR antagonist activity (without VAF347, FIG. 14) or in the presence of VAF347 (FIG. 15). All synthesized compounds show equivalent AHR antagonist activity if not greater than SR1.

NSG mice = assay: Transplantation into NSG mice of human hematopoietic stem cells expanded ex vivo with AHR antagonist; blood chimerism and brain microglia engraftment, Example 5; type: in vivo; conditions: NSG mice transplanted with cord blood CD34+ cells expanded 10 days with 500 nM AHR antagonist
Method: To investigate the ability of hematopoietic stem cells to differentiate into microglial cells and subsequently engraft in central nervous system tissue, such as the brain of a hematopoietic stem cell transplant recipient, a series of experiments were conducted in which human hematopoietic stem cells were first expanded ex vivo in the presence of an aryl hydrocarbon receptor antagonist (compound (16) or compound (24)) and were subsequently transplanted into NSG mice, in accordance with the scheme shown in FIG. 4. The frequency of human CD45+ cells in the peripheral blood of the mice was then determined, as well as the profile of microglial cells in the brain tissue using flow cytometry and immunohistochemistry techniques. […]
At the time of thaw, an equal number of cells to the starting cell cultures were injected into NSG mice, sublethally irradiated (200 cGy) 24 hours prior to injection. […] Peripheral blood was harvested by retro-orbital bleeding at approximately weeks 4 and 8 or by cardiac puncture at week 12 and chimerism was assessed by flow cytometry using antibodies against hCD45, mCD45, hCD33, hCD19, hCD3 and a viability dye. […]
Embedded brains were sectioned at approximately 5 microns and stained with Ku80 (brown) and Iba-1 (red) primary antibodies). Mouse brains were analyzed from each transplanted mouse and five levels were analyzed each. […]

[4] = VAF347 fixed at 40 nM, read-out: AHR Antagonist Activity in the Presence of VAF347 EC50
[5] = without VAF347, read-out: Endogenous AHR Antagonist Activity EC50

Structure (SMILES) | suppression of aryl hydrocarbon receptor activity (luciferase) [1] | potency of hematopoietic stem cell expansion compared with SR1 [2] | hematopoietic stem cell growth (percentage of CD34+ cells) [2] | EC50 [3] [nM] | EC50 (AHR; [4]) | EC50 (AHR; [5]) [nM] | EC50 ([3]; 168 h) [nM] | frequency of hCD45+ cells in peripheral blood (NSG mice) | engraftment of hCD45+CD11b+ microglial cells in the brain (NSG mice; brains at 3 months)
CCC(C)c1cnc2c(NCCc3c[nH]c4ccccc34)cc(-c3cncc(F)c3)cn12 (centres unmarked) [Compound (5)] | capable of suppressing aryl hydrocarbon receptor activity even in the presence of the activator VAF347 | potency greater than that reported for StemRegeninl (SR1) | capable of potentiating hematopoietic stem cell growth in a dose-dependent manner | – | – | – | – | – | –
CC(C)n1cnc2c(NCCc3ccc(O)cc3)nc(-c3csc4ccccc34)nc21 [SR1, reference compound] | – | – | – | 112 | 193 nM | 33 | – | – | –
COCCC(C)c1cnc2c(NCCc3c[nH]c4ccccc34)nc(-c3cncc(F)c3)cn12 (single isomer, unassigned) [Compound (24) - Enantiomer Peak 2, 6-(5-fluoropyridin-3-yl)-N-[2-(1H-indol-3-yl)ethyl]-3-(3-methoxy-1-methylpropyl)imidazo[1,2-a]pyrazin-8-amine] | – | – | – | 4 | 6 nM | 0.4 | – | – | –
COCCC(C)c1cnc2c(NCCc3c[nH]c4ccccc34)nc(-c3cncc(F)c3)cn12 (racemic) [Compound (24), 6-(5-fluoropyridin-3-yl)-N-[2-(1H-indol-3-yl)ethyl]-3-(3-methoxy-1-methylpropyl)imidazo[1,2-a]pyrazin-8-amine] | – | – | – | – | 13 nM and 11 nM | 1 | 7 | – | –
COCCCC(C)c1cnc2c(NCCc3c[nH]c4ccccc34)nc(-c3cncc(F)c3)cn12 (centres unmarked) [Compound (27), 6-(5-fluoropyridin-3-yl)-N-[2-(1H-indol-3-yl)ethyl]-3-(4-methoxy-1-methylbutyl)imidazo[1,2-a]pyrazin-8-amine] | – | – | – | – | 9 nM | 2 | 8 | – | –
CCC(C)c1cnc2c(NCCc3c[nH]c4ccccc34)nc(-c3cncc(F)c3)cn12 (centres unmarked) [Compound (16)] | capable of suppressing aryl hydrocarbon receptor activity even in the presence of the activator VAF347 | potency greater than that reported for StemRegeninl (SR1) | capable of potentiating hematopoietic stem cell growth in a dose-dependent manner | – | – | – | – | increased frequency of hCD45+ cells in peripheral blood | increased engraftment of hCD45+CD11b+ microglial cells in the brain
CCOCCC(C)c1cnc2c(NCCc3c[nH]c4ccccc34)nc(-c3cncc(F)c3)cn12 (centres unmarked) [Compound (28), 3-(3-ethoxy-1-methylpropyl)-6-(5-fluoropyridin-3-yl)-N-[2-(1H-indol-3-yl)ethyl]imidazo[1,2-a]pyrazin-8-amine] | – | – | – | – | 30 nM | 2 | 10 | – | –
COCCC(C)c1cnc2c(NCCc3c[nH]c4ccccc34)nc(-c3cncc(F)c3)cn12 (single isomer, unassigned) [Compound (24) - Enantiomer Peak 1, 6-(5-fluoropyridin-3-yl)-N-[2-(1H-indol-3-yl)ethyl]-3-(3-methoxy-1-methylpropyl)imidazo[1,2-a]pyrazin-8-amine] | – | – | – | 11 | 12 nM | 1 | – | – | –

— US10351572B2, “Aryl hydrocarbon receptor antagonists and uses thereof” (Magenta Therapeutics Inc., priority 2017, dated 2019)
